“And” between values parts separate entries of the source, which are not always exact repeats. Identical values can stand only once. Like-named read-outs stand apart in the source and are kept apart here.
What was measured:
[1] = Acute toxicity (Litchfield and Wilcoxon); details: rat, in vivo, male rats, read-out: toxicity DL50
Text: The acute toxicity has been determined by the oral route, by the venous route in male rats according to the method of Litchfield and Wilcoxon (J. Pharm. Exp. Therap., (1949), 96, p. 99).

[2] = test system: synaptosomes of the brain of rats; test: Inhibition of the Ca2+-uptake in synaptosomes of the brain of rats; type: biochemical, rat; details: 250 μM
Protocol: The synaptosomes have been prepared from an homogenate of the brain of rats by centrifugation in the gradient of Filcoll at 23,500 rpm for a period of 30 minutes and diluted to 1.5 mg/cc in the medium constituted by:
After 15 minutes of preincubation, ^45 CaCl2, final concentration 1 mM (0.2μCi/cc is added to the medium).
The first determination has been carried out two minutes after the addition. […] After each period, the reaction has been stopped by centrifugation and the radioactivity has been determined in the supernatant as well as in the pellet. The latter had been denatured previously with PCA, neutralized and subsequently centrifuged.

[3] = test system: kidney cells in newborn hamsters; test: Inhibition of Ca2+-uptake in kidney cells in newborn hamsters; type: cell-based, hamster
Protocol: Cells of kidneys of newborn hamsters have been washed and then resuspended several times in concentration of 5·10^6 /cc in the medium of the following composition:
After 15 minutes of preincubation at 30° C., the reaction was made to begin by addition to the medium of ^45 CaCl2 1 mM (0.1μCi/cc). The concentrations at 0 period of time were the concentrations determined two minutes after the addition. The other controls were carried out after 5 minutes, 10 minutes, and 20 minutes. The determination of [Ca^2+ ] was carried out as in the preceding experiment.

[4] = test system: mitochondria of liver of rats; test: Inhibition of Ca2+-uptake in mitochondria of liver of rats; type: biochemical, rat; details: 250 μM
Protocol: The mitochondria prepared according to classical methods are diluted to a concentration of 1.5 mg/cc in a medium of incubation which has the following composition:
After a period of 15 minutes of preincubation at 20° C. there was added ^45 CaCl2 (50 n mol/mg prot.).
In a manner analogous to the preceding experiments, the concentrations determined after two minutes were called the concentration at 0 period of time. The other controls were determined after 5 minutes, after 10 minutes and after 15 minutes. For the determination of Ca^2+, the experiment was carried out in a manner analogous to the preceding experiments.
The results are reported in Table 3 as the quantity of Ca transferred per mg of protein

[5] = test system: mitochondria of liver of rats; test: Study on the Ca2+-efflux in mitochondria of liver of rats; type: biochemical, rat; details: 250 μM
Text: The mitochondria of liver of rats prepared as in the preceding experiment were "charged" with Ca and subsequently, taken in a medium deprived of this ion. In the presence of an uncoupling agent or "Ruthenium Red", there is a flow of Ca^2+ ion from the mitochondria into the medium.
The results reported in Table 4 are expressed as the quantity of Ca transferred from the mitochondria per mg of protein per minute.

[6] = test system: aorta of rabbits; test: Antagonistic activity on the contractions produced by arachidonic acid on the aorta of rabbits, study in vitro; parameters: species or system rabbit
Protocol: The study has been carried out by comparison with Nicardipine using autologous blood as the perfusion liquid. The addition of 0.1 mg of arachidonate to the liquid induces an isometric contraction of the aorta which is registered by a transducer. […] This phenomenon is shown by the relaxation which follows the addition of arachidonate to the perfusion blood. This effect may be noted with 0.1 mg/kg of YS 035 and 1 mg/kg of Nicardipine.

[7] = test system: phosphodiesterase; test: Inhibition of the phosphodiesterase activity (method of K. G. Nair); type: biochemical
Protocol: The inhibition of phosphodiesterase activity of YS 035 and of papaverine has been assessed according to the method of K. G. Nair (Biochemistry, 5, 150, 1966).
It has been used a medium containing:
2.5 ml of buffer tris-HCl 0.1M pH 7.4;
50 μl CAMP "Sigma" (1 mg/ml);
5 μl Adenosin deaminase (2 mg/ml);
20 μl of alkaline phosphatase "Sigma" (2.6 mg/ml);
15 μl of phosphodiesterase (10 mg/ml).
YS 035 has been added up to a final concentration of 100 mM and Papaverine to a concentration of 10 mM.

[8] = test system: portions of the aorta; test: Contraction of aorta portions by arachidonic acid after oral administration to rabbits (studies in vivo); parameters: species or system rabbit
Protocol: Both substances YS 035 and Nicardipine have been administered orally for a period of three consecutive days to rabbits in such a manner that the last administration of each substance was carried out one hour prior to killing the animals. The portions of the aorta had then been incubated either in PRP as well as in the Krebs-Henseleit liquid.

[9] = test system: rats; test: Effect on the multiple cerebral infarct in rats (intracarotid sodium arachidonate); type: in vivo, rat; details: 15 minutes prior to the infarct
Protocol: The intracarotid injection of sodium arachidonate (0.1 mg) causes in rats an edema reaction accompanied by an accumulation of calcium in the brain tissue and a decrease, on the other hand, of the cholesterol level.

[10] = test system: dogs; test: Effect on the myocardial infarct in the subacute phase in dogs (method of Harris); type: in vivo, dog; details: 0.1 mg/kg intravenously, three times within 48 hours
Protocol: The tying up of the […] coronary artery by the method of Harris causes the following effects:
The treatment with YS 035 in the dose of 0.1 mg/kg intravenously, carried after tying the coronary artery and three times within 48 hours in the same dose has provided the following results: […]

[11] = test system: calcium entry; test: Calcium antagonistic activity (general statement); details: compared with nifedipine

With `COc1ccc(CCN(C)CCc2ccc(OC)c(OC)c2)cc1OC` [YS 035, N-methyl-N-bis-(3,4-dimethoxy-phenyl-ethyl)amine] the LD50 ([1]; iv, venous route) was 19 mg/kg, the LD50 ([1]; oral route) was 178 mg/kg and the “inhibitory activity on the calcium uptake (in words)” value [2] was “comparable to the activity exhibited by Nifedipine”. The “Ca2+-uptake” value ([2]; 45CaCl2 1 mM, control 80 ± 7) was 47 ± 4 n g ions/mg prot/15 min, the “Ca2+-uptake” value ([3]; 250 μM, 30° C., control 11.9) was 7.5 n g ions/mg prot/15' and the “inhibitory action on the uptake of Ca (in words)” value ([3]; 250 μM, compared with nifedipine) was “superior to the activity of nifedipine”. The percent change in Ca2+-uptake versus control at 250 µM ([3]; Mesocricetus auratus, 0.25 h, 15 min) was -36.9%, the “Ca2+-uptake” value ([4]; 20° C., control 14.3) was 11.0 n g ions/mg prot and the “inhibitory activity on the uptake of Ca (in words)” value ([4]; compared with nifedipine) was “slightly inferior to the activity of nifedipine”. For the same compound, the “uncoupling action (in words)” value [5] was “does not exhibit this action”, the “Ca2+-efflux induced by Ruthenium red” value ([5]; control 0.7) was 0.6 n g ions/min. mg/prot and the “Ca2+-efflux induced by uncoupling agent” value ([5]; control 8.3) was 5.4 n g ions/min. mg/prot. The “Contraction of the first portion of the aorta” value ([6]; N = 4) was 48 ± 6.7 mm, the inhibition at 0.01 mg/kg ([6]; Oryctolagus cuniculus, dose 0.01 mg·Kg^-1, read-out: Contraction of the second and third portion of the aorta, % Variation) was 42 ± 31% and the inhibition at 0.1 mg/kg ([6]; Oryctolagus cuniculus, dose 0.1 mg·Kg^-1, second and third portion, read-out: % Variation, small contractions observed occasionally prior to relaxation (value in brackets)) was 60 ± 29.3%. The inhibition at 1 mg/kg ([6]; Oryctolagus cuniculus, dose 1.0 mg·Kg^-1, read-out: Contraction of the second and third portion of the aorta, % Variation) was 132 ± 16.1%, the inhibition at 1 mg/kg ([6]; Oryctolagus cuniculus, line without dose, below dose 1.0 mg·Kg^-1, read-out: Contraction of the second and third portion of the aorta, % Variation) was 16% and the minimal effective dose ([6]; Oryctolagus cuniculus, autologous blood perfusion, 0.1 mg arachidonate, read-out: dose at which relaxation following the addition of arachidonate is noted) was 0.1 mg/kg. The “inhibitory effect on the contraction produced by the arachidonate (in words)” value ([6]; YS 035 compared with Nicardipine) was “comparable”, the “inhibiting activity on the phosphodiesterases (in words)” value ([7]; general statement) was “completely devoid of inhibiting activity on the phosphodiesterases” and the “inhibition of phosphodiesterase activity (in words)” value ([7]; up to a final concentration of 100 mM) was “completely inactive”. For the same compound, the “Amplitude of contraction, medium Krebs, individual values” ([8]; 10 mg·Kg^-1 P.O., Krebs, controls 12 ± 2.3) was -6 mm and +7 mm, the “Amplitude of contraction, PRP, individual values” ([8]; 10 mg·Kg^-1 P.O., PRP, controls 30 ± 8.0) was “+28 mm” and the “site of action (in words)” value ([8]; aortic endothelial level, particularly PGI2) was “act directly on the synthesis of prostaglandin”. The “entry of calcium in brain tissue (in words)” value ([9]; 1 mg/kg intravenously) was “reduces moderately the entry of calcium”, the “other changes at the biochemical level (in words)” value ([9]; intravenously, 1, 3.3 and 10 mg/kg) was “no effect” and the “consumption of glucose in the myocardium (in words)” value [10] was “not changed”. For the same compound, the “consumption of lactate (in words)” value [10] was “has a tendency to return to normality”, the “consumption of oxygen (in words)” value [10] was “increases substantially” and the “coronary blood flow (in words)” value [10] was “remains similar to that of the control groups, or at the most tends to increase moderately”. The “coronary vascular resistance (in words)” value [10] was “not only is reduced, but becomes inferior to that of the control group”, the “index of the aortic flow (in words)” value [10] was “not changed” and the “index of work of the left ventricle (in words)” value [10] was “significantly higher than that present in the dogs with the infarct”. The “ratio DPTI/TTI (in words)” value [10] was “not changed”, the “uptake of the free fatty acids (in words)” value [10] was “increases and reaches also a value twice the basal flow measured in healthy control animals” and the “calcium antagonistic activity (in words)” value [11] was “strong calcium antagonistic activity, comparable to nifedipine”.

Source: US4956389A, “Compounds having calcium blocking activity” (priority 1982, dated 1990)
